Data on eight molecules can be found in ChEMBL document CHEMBL1129804, “First synthesis and cytotoxic activity of novel docetaxel analogs modified at the C18-position” (1997).

≈ marks a conversion by molar mass, not a printed value.

Common to all, as to type: functional
The subject of one assay is P388. The assay is described as follows: Compound was tested for growth inhibitory activity after 72 hr of continuous exposure against mouse leukemia P388. To be noted: P388, 72 h.
Assay [1] relates to PC-6. In words: Compound was tested for growth inhibitory activity after 72 hr of continuous exposure against human lung cancer cell line PC-6. To be noted: PC-6, 72 h.
Assay [2] has as its system PC-6. In words: Compound was tested for growth inhibitory activity after 72 hr of continuous exposure against vincristine resistant cancer cell line PC-6/VCR. To be noted: Homo sapiens, PC-6, 72 h.

Regarding `CC(=O)O[C@@]12CO[C@@H]1C[C@H](O)[C@@]1(C)C(=O)[C@H](O)C3=C(CC#N)[C@@H](OC(=O)[C@H](O)[C@@H](NC(=O)OC(C)(C)C)c4ccccc4)C[C@@](O)([C@@H](OC(=O)c4ccccc4)[C@H]21)C3(C)C`, the GI50 (in general, the concentration at which growth is held to half of that of the control) in the assay on P388 amounted to 0.00837 µg/mL (≈ 0.01 µM); in the assay on PC-6 [1], 0.00481 µg/mL (≈ 0.00578 µM); with PC-6 [2], 0.754 µg/mL (≈ 0.905 µM).
The corresponding values for `CC(=O)OCC1=C2[C@@H](O)C(=O)[C@@]3(C)[C@H]([C@H](OC(=O)c4ccccc4)[C@](O)(C[C@@H]1OC(=O)[C@H](O)[C@@H](NC(=O)OC(C)(C)C)c1ccccc1)C2(C)C)[C@]1(OC(C)=O)CO[C@@H]1C[C@@H]3O` are 0.181 µg/mL (≈ 0.209 µM), 0.163 µg/mL (≈ 0.188 µM) and above 1 µg/mL.
Turning to `CC(=O)O[C@H]1C(=O)[C@@]2(C)[C@H]([C@H](OC(=O)c3ccccc3)[C@]3(O)C[C@H](OC(=O)[C@H](O)[C@@H](NC(=O)OC(C)(C)C)c4ccccc4)C(CN=[N+]=[N-])=C1C3(C)C)[C@]1(OC(C)=O)CO[C@@H]1C[C@@H]2O`, the GI50 in the assay with P388 came out at 0.0401 µg/mL (≈ 0.045 µM); in the assay on PC-6 [1], 0.0524 µg/mL (≈ 0.0588 µM); in the assay on PC-6 [2], 0.39 µg/mL (≈ 0.438 µM).
For `CC(=O)O[C@@]12CO[C@@H]1C[C@H](O)[C@@]1(C)C(=O)[C@H](O)C3=C(CN4CCOCC4)[C@@H](OC(=O)[C@H](O)[C@@H](NC(=O)OC(C)(C)C)c4ccccc4)C[C@@](O)([C@@H](OC(=O)c4ccccc4)[C@H]21)C3(C)C`, in that order: above 1 µg/mL, above 1 µg/mL and above 1 µg/mL.
The corresponding values for `CC(=O)O[C@H]1C(=O)[C@@]2(C)[C@H]([C@H](OC(=O)c3ccccc3)[C@]3(O)C[C@H](OC(=O)[C@H](O)[C@@H](NC(=O)OC(C)(C)C)c4ccccc4)C(C=O)=C1C3(C)C)[C@]1(OC(C)=O)CO[C@@H]1C[C@@H]2O` are above 1 µg/mL, 0.699 µg/mL (≈ 0.809 µM) and above 1 µg/mL.
For `CCC1=C2[C@@H](OC(C)=O)C(=O)[C@@]3(C)[C@H]([C@H](OC(=O)c4ccccc4)[C@](O)(C[C@@H]1OC(=O)[C@H](O)[C@@H](NC(=O)OC(C)(C)C)c1ccccc1)C2(C)C)[C@]1(OC(C)=O)CO[C@@H]1C[C@@H]3O`, the GI50 with P388 is 0.00745 µg/mL (≈ 0.00862 µM); in the assay with PC-6 [1], 0.0103 µg/mL (≈ 0.0119 µM); in the assay with PC-6 [2], 0.167 µg/mL (≈ 0.193 µM).
Regarding `CC(=O)NCC1=C2[C@@H](OC(C)=O)C(=O)[C@@]3(C)[C@H]([C@H](OC(=O)c4ccccc4)[C@](O)(C[C@@H]1OC(=O)[C@H](O)[C@@H](NC(=O)OC(C)(C)C)c1ccccc1)C2(C)C)[C@]1(OC(C)=O)CO[C@@H]1C[C@@H]3O`, the GI50 was 0.393 µg/mL (≈ 0.433 µM) in the assay with P388, 0.131 µg/mL (≈ 0.144 µM) in the assay with PC-6 [1] and above 1 µg/mL in the assay with PC-6 [2].
The corresponding values for `CC(=O)O[C@@]12CO[C@@H]1C[C@H](O)[C@@]1(C)C(=O)[C@H](O)C3=C(C)[C@@H](OC(=O)[C@H](O)[C@@H](NC(=O)OC(C)(C)C)c4ccccc4)C[C@@](O)([C@@H](OC(=O)c4ccccc4)[C@H]21)C3(C)C.O.O.O` [DOCETAXEL] are 0.00162 µg/mL, 0.00116 µg/mL and 0.173 µg/mL.
